Data reported in patent publication US20250314644A1, “METHODS COMPRISING DETECTION OF ADP-HEPTOSE” (CHILDREN'S HOSPITAL MEDICAL CENTER, priority 2023, published 2025).

Experiments:
Dnmt3a^−/− HSCs = test: NF-κB activation in vitro (NF-κB^GFP reporter, immunoblot); format: cell-based, mouse; conditions: NF-κB^GFP HSCs compared to WT
From the text: (§1) Because intestinal epithelial injury and dysbiosis mediate the expansion of Dnmt3a-mutant pre-leukemic cells was observed, Applicant evaluated whether this occurs because of ADP-heptose-mediated ALPK1 signaling. Indeed, Dnmt3a^−/− HSCs were exquisitely sensitive to ADP-heptose stimulation in vitro. […] Activation of NF-κB in Dnmt3a^−/− HSPCs occurred following treatment with ADP-heptose (FIG. 3L). […] Constitutive combined activation of NF-κB and MAPK, such as during chronic inflammation with IL-1β, promotes differentiation of HSCs at the expense of self-renewal, leading to depletion of the HSC population.
(§2) Dnmt3a^f/f and MxCre^+ (obtained from H. Lee Grimes Laboratory, CCHMC)^33, Alpk1^−/− (11 bp deletion in exon 3, C57BL/6N-Alpk1^em1Fsha/J, Cat no. 032561, Jackson Laboratory), Tifa^−/− (gift from Jun-Ichiro Inoue, University of Tokyo, Japan), and UBC-GFP (C57BL/6-Tg(UBC-GFP)30Scha/J, Cat no. 004353, Jackson Laboratory) mice were maintained on CD45.2+C57BL/6 background. NF-kB^GFP reporter mice were generously provided by C. Jobin. Throughout the study, CD45.1+B6.SJL-Ptprc^a (BoyJ) mice were used as recipients for BM transplantation experiments. […] Mice were bred, housed and monitored daily by laboratory staff and veterinary personnel for health and activity. […]
(§3) Protein concentration was evaluated by bicinchoninic acid (BCA) assay (Pierce, Cat #23225). […]

WT HSPCs = test: as above; format: cell-based, mouse
From the text: as §1, §2, §3

Compound: Nc1ncnc2c1ncn2[C@@H]1O[C@H](COP(=O)(O)OP(=O)(O)O[C@@H]2O[C@H]([C@H](O)CO)[C@@H](O)[C@H](O)[C@@H]2O)[C@@H](O)[C@H]1O [ADP-heptose, ADP-D-glycero-β-D-manno-heptose]
- NF-κB activation (NF-κB^GFP reporter) (Dnmt3a^−/− HSCs): robust and sustained NF-κB activation
- concentration of ADP-heptose required to induce NF-κB activation (WT HSPCs): > 1 µM
